Experiments:
Type in all cases: in vivo
[1] = test system: Sinapis alba; test: Field trial Example 1, successive application: damage on SINAL; settings: DAT 25/DALT 10
Source text: (§1) Aminiopyralid was used as commercial aquaeous solution having an active ingredient concentration of 240 g/l (Milestone™). Metazachlor was used as a commercial suspension concentrate having an active ingredient concentration of 500 g/l (Butisan S®).
The performance of aminopyralid applied as an alone treatment at 15, 30 and 50 g a.i./ha applied as an early post emergence treatment and an post emergence treatment in comparison to two different applications including metazachlor at 500 g a.i./ha as an early post emergence application in succession of aminopyralid as a post emergence application at 15 and 30 g a.i./ha was assessed in an oilseed rape field trials.
The early post emergence treatment was applied by means of fine distributed nozzles at the growth stage (GS) of the crop BBCH 11-12.
The post emergence treatment was applied by means of fine distributed nozzles at the growth stage (GS) of the crop BBCH 13-14.
The test period extended over the autumn and spring season (205 days).
In the following experiments, the herbicidal activity for the individual herbicide compounds (solo application) and of the herbicidal succession was assessed 4 times:
(§2) The evaluation for the damage on undesired weeds caused by the chemical compositions was carried out using a scale from 0 to 100%, compared to the untreated control plants. Here, 0 means no damage and 100 means complete destruction of the plants.

[2] = test system: Papaver rhoeas; test: Field trial Example 2, combined application: PAPRH
Method: as §1, §2
The value E, which is to be expected if the activity of the individual compounds is just additive, was calculated using the method of S. R. Colby (1967) “Calculating synergistic and antagonistic responses of herbicide combinations”, Weeds 15, p. 22 ff.
The performance of aminopyralid, applied as an alone treatment at […] and 15 g ai/ha, and the performance of metazachlor, applied as an alone treatment at 375 and 500 g ai/ha, as well as the mixtures of the both compounds have been assessed in winter oilseed rape field trials. The trials have been conducted in Germany at two locations.
Post emergence treatment was applied by means of fine distributed nozzels at the growth stage (GS/BBCH 11/12).

[3] = test system: Capsella bursa-pasturis; test: Greenhouse trial, post-emergence: CAPBP; settings: aminopyralid 10 g ai/ha solo, post-emergence (Table 10)
Method: The test plants have been seeded, separately for each species, in plastic containers in sandy loamy soil containing 5% organic matter.
For the post emergence treatment, the plants were first grown to the 2 leaf station (GS 12). Here, the herbicidal compositions were suspended or emulsified in water as distribution medium and sprayed using finely distributing nozzels.
The plants have been cultivated due to there individual requirements at 10-25° C. and 20-35° C. The plants were irrigated due to there necessity. […]
as §2
Calculation of expected activity of binary mixtures was done by using the Colby-Formula according to Example 1.

Structure (SMILES): Nc1cc(Cl)nc(C(=O)O)c1Cl [aminopyralid, 4-amino-3,6-dichloropyridine-2-carboxylic acid]
- damage on SINAL ([1]; 15 g ai/ha, treatment A early post emergence): 13%
- damage on SINAL ([1]; 15 g ai/ha, treatment B post emergence): 0%
- damage on SINAL ([1]; 30 g ai/ha, treatment A early post emergence): 50%
- damage on SINAL ([1]; 30 g ai/ha, treatment B post emergence): 0%
- damage on SINAL ([1]; 50 g ai/ha, treatment A early post emergence): 67%
- damage on SINAL ([1]; 50 g ai/ha, treatment B post emergence): 0%
- % activity ([2]; Aminopyralid 7.5 g ai/ha solo, 29 DAT): 94%
- % activity ([2]; Aminopyralid 7.5 g ai/ha solo, 72 DAT): 88%
- % activity ([2]; Aminopyralid 7.5 g ai/ha solo, 78 DAT): 95%
- % activity ([2]; Aminopyralid 15 g ai/ha solo, 28 DAT): 92%
- % activity ([2]; Aminopyralid 15 g ai/ha solo, 72 DAT): 97%
- % activity 28 DAT [3]: 25%

— US20110092367A1, “Herbicidal Compositions Comprising 4-amino-3,6-dichloropyridine-2-carboxylic Acid” (BASF SE, priority 2008, published 2011)
